From US7589123B2, “Chemical compounds” (Phytopharm PLC, priority 2006, dated 2009) come the findings set out here.

Data set [1] has as its system WI-38 cells. As to the kind of experiment: Viability of WI-38 cells, Alamar Blue (Assay 5). It is filed as cell-based, human. A digest of the protocol:
(§1)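 Cell viability was read by Alamar Blue fluorescence (530/590 nm) after 4 h at 37 °C, following an overnight 37 °C incubation of human lung fibroblasts with 1 nM IL-1α and compound (3 or 30 μM) in 10% FBS MEM, pH 7.3. Supernatant PGE2 was measured by radioimmunoassay to derive percent inhibition.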
On the technique in general: Alamar Blue is a resazurin reagent that responds to reducing activity.

Data set [2] concerns histamine-induced contractions in guinea pig ileum. As to the kind of experiment: Inhibition of histamine-induced contractions in guinea pig ileum (Assay 3). To be noted: Cavia porcellus, histamine 1.7 μM, read-out: Inhibition of histamine-induced contraction (%). A digest of the protocol: (§2)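 Ileal strips from male Duncan Hartley guinea pigs were held at 1 g tension in 32° C oxygenated Krebs (pH 7.4) with isotonic transducers. After control contractions to 5-HT (2.6 μM) or histamine (1.7 μM), compound at 3 and 30 μM was added, its own effect noted, and agonist re-applied.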

In data set [3] the test system is IL-1α-induced PGE2 release. As to the kind of experiment: IL-1α-induced PGE2 release in human diploid lung fibroblasts (WI-38) (Assay 5). It is filed as cell-based. Particulars: Homo sapiens, WI-38 cells, IL-1α 1 nM, overnight. A digest of the protocol: as §1
Data set [4] relates to 5-HT-induced contractions in guinea pig ileum. Put plainly: Inhibition of 5-HT-induced contractions in guinea pig ileum (Assay 3). To be noted: Cavia porcellus, 5-HT 2.6 μM, read-out: Inhibition of 5-HT-induced contraction (%). A digest of the protocol:
as §2

For data set [5], the system named is ovalbumin-sensitised mice. As to the kind of experiment: Ovalbumin-sensitised mice, a chronic model of asthma in vivo (Assay 8). Particulars: mean ± s.e.mean, oral gavage 20 days: 2 3 mg/kg/day, 32 30 mg/kg/day, budesonide 1 mg/kg/day, montelukast 10 mg/kg/day; for Eosinophil infiltration / IL-4 concentration / IL-13 concentration: BAL fluid day 55; for Eosinophil infiltration: sensitised 192.1 ± 33.2; for IL-4 concentration: sensitised 231.2 ± 62.4; for IL-13 concentration: sensitised 241.9 ± 89.3; for Histopathology score: lung remodelling, day 55, sensitised 541.6 ± 36.1; for Increase in penH: methacholine challenge, day 54, sensitised 193.0 ± 61.7. How it is done: Mice (BALB/c from Harlan-Olac) were sensitised to ovalbumin using two interperitoneal injections of ovalbumin (10 μg) and alum (200 μl) on day 1 and 14 followed by a 20 min, daily exposure to a ovalbumin aerosol (5%) on days 19-23 and then a thrice weekly 20 min, exposure to a ovalbumin aerosol (5%) on days 24-55. […] On day 54, mice were placed in BUXCO four chamber whole body plethysmographs and breathing-associated pressure changes were recorded which were then used to calculate enhanced pause (penH), a measurement of airways resistance, in response to a methacholine challenge.
On day 55 the mice were killed and brochoalveolar lavage (BAL) fluid was collected and cytospins prepared to measure eosinophil infiltration. In addition, concentrations of interleukin-4 (IL-4) and interleukin-13 (IL-13) were measured in the BAL fluid. Furthermore, lung samples were taken, examined by a histopathologist and scored using a grading system to describe the degree of lung remodelling.

For orientation: melting point means the temperature of the solid-liquid transition. Turning to `COc1cc(CCC(=O)CC(=O)c2ccccc2)ccc1OCCN.Cl`, the melting point stood at 80 °C.
The same measure, in the same setting: the value for `COc1cc(/C=C/C(=O)CC(=O)C2CC2)ccc1O` [Compound 37, (E)-1-Cyclopropyl-5-(4-hydroxy-3-methoxyphenyl)-pent-4-ene-1,3-dione] was 74.5 to 79 °C.
The term inhibition denotes the drop in the measured response relative to a control, in per cent. The molecule `COc1cc(/C=C/C(=O)CC(=O)c2ccc(O)c(OC)c2)ccc1O` [Compound 47, (E)-1,5-Bis-(4-hydroxy-3-methoxyphenyl)-pent-4-ene-1,3-dione] returned a melting point of 170 to 172 °C. Also, the “Decrease in cell viability (%)” value in data set [1] (3 μM) amounted to 1%. Besides, the “Decrease in cell viability (%)” value in data set [1] (30 μM) amounted to 11%. Besides, the inhibition at 3 µM in data set [2] (3 μM) is 5%. The inhibition at 30 µM in data set [2] (30 μM) was 23%. In data set [3] (3 μM), the inhibition at 3 µM was 10%. The inhibition at 30 µM in data set [3] (30 μM) is 109%. In addition, the inhibition at 3 µM in data set [4] (3 μM) was found to be 6%. Further, the inhibition at 30 µM in data set [4] (30 μM) is 33%.
`COc1cc(C=CC(=O)CC(=O)c2ccc(Cl)cc2)ccc1O` [Compound 53, 1-(4-Chlorophenyl)-5-(4-hydroxy-3-methoxyphenyl)pent-4-ene-1,3-dione]: the melting point is 57 to 63 °C.
The same measure, in the same setting: the result for `COc1cc(C=CC(=O)CC(=O)c2cccc(Cl)c2)ccc1O` [Compound 54, 1-(3-Chlorophenyl)-5-(4-hydroxy-3-methoxyphenyl)pent-4-ene-1,3-dione] reads 54 to 55 °C; that for `COc1cc(C=CC(=O)CC(=O)c2ccc(Cl)c(Cl)c2)ccc1O` [Compound 55, 1-(3,4-Dichlorophenyl)-5-(4-hydroxy-3-methoxyphenyl)pent-4-ene-1,3-dione], 78 to 80 °C; that for `COc1cc(C=CC(=O)CC(=O)c2ccc(Cl)cc2Cl)ccc1O` [Compound 56, 1-(2,4-Dichlorophenyl)-5-(4-hydroxy-3-methoxyphenyl)pent-4-ene-1,3-dione], 86 to 87 °C.
`COC(=O)c1ccc(C(=O)CC(=O)/C=C/c2ccc(O)c(OC)c2)cc1` [Compound 57, Methyl 4-[(E)-1,3-dioxo-5-(4-hydroxy-3-methoxyphenyl)pent-4-enyl]benzoate]: the melting point is 187 to 189 °C.
The same measure, in the same setting: the value for `COc1cc(/C=C/C(=O)CC(=O)Cc2ccccc2)ccc1O` [Compound 60, (E)-6-(4-Hydroxy-3-methoxyphenyl)-1-phenyl-hex-5-ene-2,4-dione] was 106 °C; that for `COc1cc(/C=C/C(=O)C(C)(C)C(=O)C(C)(C)C)ccc1O` [Compound 91, (E)-1-(4-Hydroxy-3-methoxyphenyl)-4,4,6,6-tetramethylhept-1-ene-3,5-dione] was 98 to 99 °C.
In the case of `COc1cc(/C=C/C(=O)CC(=O)c2ccccc2Cl)ccc1O` [Compound 94, (E)-1-(2-Chlorophenyl)-5(4-hydroxy-3-methoxyphenyl)pent-4-ene-1,3-dione], the melting point was determined as 89 °C.
The molecule `COc1cc(/C=C/C(=O)CC(=O)c2ccc(Cl)c(C)c2)ccc1O` [Compound 95, (E)-1-(4-Chloro-3-methylphenyl)-5-(4-hydroxy-3-methoxyphenyl)pent-4-ene-1,3-dione] returned a melting point of 68 to 70 °C.
Same read-out and setting: the result for `COc1cc(/C=C/C(=O)CC(=O)c2ccc(Cl)cc2C)ccc1O` [Compound 96, (E)-1-(4-Chloro-2-methylphenyl)-5-(4-hydroxy-3-methoxyphenyl)pent-4-ene-1,3-dione] reads 78 °C.
The molecule `COc1cc(/C=C/C(=O)CC(=O)c2ccc(C)c(Cl)c2)ccc1O` [Compound 98, (E)-1-(3-Chloro-4-methylphenyl)-5-(4-hydroxy-3-methoxyphenyl)pent-4-ene-1,3-dione] came in with a melting point of 70 to 72 °C.
In turn, `COc1cc(/C=C/C(=O)CC(=O)c2ccc(C#N)cc2)ccc1O` [Compound 101, (E)-1-(4-Cyanophenyl)-5-(4-hydroxy-3-methoxyphenyl)pent-4-ene-1,3-dione] gave a melting point of 128 to 130 °C.
As to `COc1cc(/C=C/C(=O)CC(=O)c2ccc(C(C)(C)C)cc2)ccc1O` [Compound 102, (E)-1-(4-tert-Butylphenyl)-5-(4-hydroxy-3-methoxyphenyl)pent-4-ene-1,3-dione], the melting point fell in the range of 87 to 88 °C.
`COc1cc(/C=C/C(=O)CC(=O)c2ccccc2C)ccc1O` [Compound 103, (E)-5-(4-Hydroxy-3-methoxyphenyl)-1-o-tolylpent-4-ene-1,3-dione] yielded a melting point of 96 °C.
`COc1cc(/C=C/C(=O)CC(=O)c2cccc(C)c2)ccc1O` [Compound 104, (E)-5-(4-Hydroxy-3-methoxyphenyl)-1-m-tolylpent-4-ene-1,3-dione] had a melting point of 52 °C.
The same measure, in the same setting: the value for `COc1cc(/C=C/C(=O)CC(=O)c2ccc3ccccc3c2)c(Cl)cc1O` [Compound 105, (E)-5-(2-Chloro-4-hydroxy-5-methoxyphenyl)-1-(naphthalene-3-yl)pent-4-ene-1,3-dione] was 134 °C; that for `CCOc1cc(/C=C/C(=O)CC(=O)c2ccccc2)ccc1O` [Compound 106, (E)-5-(3-Ethoxy-4-hydroxyphenyl)-1-phenylpent-4-ene-1,3-dione] was 110 to 112 °C.
Regarding `CCCC1O[C@@H]2C[C@H]3[C@@H]4CCC5=CC(=O)C=C[C@]5(C)[C@H]4[C@@H](O)C[C@]3(C)[C@]2(C(=O)CO)O1` (some centres unmarked) [budesonide, reference compound], in data set [5], the Eosinophil infiltration is 38.4 ± 5.4% of control, the IL-4 concentration is 144.2 ± 59.7% of control, the IL-13 concentration is listed as 199.3 ± 110.1% of control and the Histopathology score is on record as 200.0 ± 27.6% of control. Further, the “Increase in penH” value in data set [5] is reported as 184.6 ± 27.7% of control.
Taken in the same sequence, the figures for `CC(C)(O)c1ccccc1CC[C@@H](SCC1(CC(=O)O)CC1)c1cccc(/C=C/c2ccc3ccc(Cl)cc3n2)c1` [montelukast, reference compound] were 124.3 ± 24.8% of control, 58.2 ± 37.2% of control, 73.2 ± 55.3% of control, 450.0 ± 38.25% of control and 187.6 ± 31.9% of control.
